Tested on: IEC-6 cells
Assay: Wounding assay: migration of IEC-6 cells after mechanical wounding (96-well plate)
Type: cell-based, rat
Description: After incubation in 10% FBS supplemented DMEM for 24 hours, the cells are starved in serum-free medium for another 24 hours. […] A cell denuded area is created by scratching the cell monolayer with the eight-channel mechanical wounder fitted with p-10 pipette tips (Axygen, T-300). To ensure even contact between the tips and the bottom of the well, the pins are calibrated by adjusting the hex screw with a hex wrench. With the help of the guiding-bar, the wounder is fixed onto the 96-well plate where each channel (pipette tip) is positioned at the same level in the eight wells of the same column. During wounding, the cell monolayer is scratched by moving the wounder from the left inner edge to the right inner edge of the wells where a sharp wound is formed along the diameter of each well. The wounding procedure is then repeated for all columns of a 96-well plate.
Photomicrographs of wounds are taken at time zero (501, 503, 505), 16 hours (511, 513, 515) and 24 hours (521, 523, 525) after wounding. Images at time zero are taken to record the initial width of the wounds and the recovery of the wounded monolayers due to cell migration towards the denuded area can be evaluated at 16 and 24 hours. The images are captured using an inverted phase-contract microscope such as a TMS Nikon with 4× objective, and the width of wound can quantified by the software such as Motic image plus 2.0 software of Motic Instruments. The migration of cells towards the wounds is expressed as a percentage of wound closure where % of wound closure=[(Wt=0−Wt=16 or 24)/Wt=0]×100% where Wt=0 is the width of wound measured immediately after scratching and Wt=16 or 24 is the width of wound measured 16 hours or 24 hours after scratching.

| Compound | percentage of wound closure (16 hours after wounding, 5 mM DFMO in serum-free medium (control about 60%)) | percentage of wound closure (24 hours after wounding, 5 mM DFMO in serum-free medium (control 76%)) | percentage of wound closure (24 hours after wounding, 20 ng/ml EGF in serum-free medium (control 76%)) |
| --- | --- | --- | --- |
| NCCC[C@](N)(C(=O)O)C(F)F [DFMO, alpha-difluoromethylornithine] | 33% | around 50% |  |
| epithelial growth factor (NSDSECPLSHDGYCLHDGVCMYIEALDKYACNCVVGYIGERCQYRDLKWWELR; Epidermal growth factor; UniProt P01133 971-1023, looked up) [EGF, cell migration enhancer, used as the inducer of cell migration] |  |  | ~100% |
